Data reported in patent publication US10519152B2, “Compounds and their use in treating cancer” (AstraZeneca AB, priority 2017, dated 2019).

Molecular target: T1, Estrogen Receptor (ERα) in MCF-7 human ductal carcinoma breast cell line (Homo sapiens, UniProt P03372)
T1 construct: endogenous in cells; host or cells: MCF-7
T1 sequence (P03372 1-595): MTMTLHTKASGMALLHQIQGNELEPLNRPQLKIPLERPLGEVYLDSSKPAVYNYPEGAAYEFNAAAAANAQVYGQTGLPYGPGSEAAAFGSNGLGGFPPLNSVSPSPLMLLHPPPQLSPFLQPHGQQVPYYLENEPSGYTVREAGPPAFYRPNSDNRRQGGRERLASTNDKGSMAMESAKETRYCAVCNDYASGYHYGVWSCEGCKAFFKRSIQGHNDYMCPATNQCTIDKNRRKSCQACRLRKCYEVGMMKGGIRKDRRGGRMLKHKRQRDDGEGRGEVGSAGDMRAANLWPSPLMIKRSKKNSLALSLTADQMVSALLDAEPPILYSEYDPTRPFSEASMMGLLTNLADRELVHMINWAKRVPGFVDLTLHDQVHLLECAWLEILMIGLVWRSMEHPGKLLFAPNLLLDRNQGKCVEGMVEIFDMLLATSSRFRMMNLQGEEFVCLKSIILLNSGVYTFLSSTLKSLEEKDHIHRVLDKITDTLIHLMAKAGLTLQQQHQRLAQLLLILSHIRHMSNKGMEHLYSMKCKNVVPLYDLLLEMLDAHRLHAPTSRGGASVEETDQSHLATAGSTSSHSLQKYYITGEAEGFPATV
Assay: MCF-7 ER degradation assay (cell based immuno-fluorescence)
Conditions: MCF-7 cells; for ER degradation ≥ 90% at 0.3 μM: ER degradation by fulvestrant at 0.3 μM is defined as 100%; for DC50: 18-22 hours incubation, 50% reduction of ERα expression, single experiment or average of two or more, read-out: MCF-7 ER degradation IC50
Description: MCF-7 ER Degradation Assay
The ability of compounds to down-regulate Estrogen Receptor (ER) numbers was assessed in a cell based immuno-fluorescence assay using the MCF-7 human ductal carcinoma breast cell line. MCF-7 cells were revived directly from a cryovial (approx 5×10^6 cells) in Assay Medium (phenol red free Dulbecco's Modified Eagle's medium (DMEM); Sigma D5921) containing 2 mM L-Glutamine and 5% (v/v) Charcoal/Dextran treated foetal calf serum. Cells were syringed once using a sterile 18 G×1.5 inch (1.2×40 mm) broad gauge needle and cell density was measured using a Coulter Counter (Beckman). Cells were further diluted in Assay Medium to a density of 3.75×10^4 cells per mL and 40 μL per well added to transparent bottomed, black, tissue culture-treated 384 well plates (Costar, No. 3712) using a Thermo Scientific Matrix WellMate or Thermo Multidrop. Following cell seeding, plates were incubated overnight at 37° C., 5% CO2 (Liconic carousel incubator). Test data was generated using the LabCyte Echo™ model 555 compound reformatter which is part of an automated workcell (Integrated Echo 2 workcell). Compound stock solutions (10 mM) of the test compounds were used to generate a 384 well compound dosing plate (Labcyte P-05525-CV1). 40 μL of each of the 10 mM compound stock solutions was dispensed into the first quadrant well and then 1:100 step-wise serial dilutions in DMSO were performed using a Hydra II (MATRIX UK) liquid handling unit to give 40 μL of diluted compound into quadrant wells 2 (0.1 mM), 3 (1 μM) and 4 (0.01 μM), respectively. 40 μL of DMSO added to wells in row P on the source plate allowed for DMSO normalisation across the dose range. To dose the control wells 40 μL of DMSO was added to row O1 and 40 μL of 100 μM fulvestrant in DMSO was added to row O3 on the compound source plate.
The Echo uses acoustic technology to perform direct microplate-to-microplate transfers of DMSO compound solutions to assay plates. The system can be programmed to transfer volumes as low as 2.5 nL in multiple increments between microplates and in so doing generates a serial dilution of compound in the assay plate which is then back-filled to normalise the DMSO concentration across the dilution range. Compounds were dispensed onto the cell plates with a compound source plate prepared as above producing a 12 point duplicate […] dose range with 3-fold dilutions and one final 10-fold dilution using the Integrated Echo 2 workcell. The maximum signal control wells were dosed with DMSO to give a final concentration of 0.3%, and the minimum signal control wells were dosed with fulvestrant to give a final concentration of 100 nM accordingly. Plates were further incubated for 18-22 hours at 37° C., 5% CO2 and then fixed by the addition of 20 μL of 11.1% (v/v) formaldehyde solution (in phosphate buffered saline (PBS)) giving a final formaldehyde concentration of 3.7% (v/v). Cells were fixed at room temperature for 20 mins before being washed two times with 250 μL PBS/Proclin (PBS with a Biocide preservative) using a BioTek platewasher, 40 μL of PBS/Proclin was then added to all wells and the plates stored at 4° C. The fixing method described above was carried out on the Integrated Echo 2 workcell. Immunostaining was performed using an automated AutoElisa workcell. The PBS/Proclin was aspirated from all wells and the cells permeabilised with 40 μL PBS containing 0.5% Tween™ 20 (v/v) for 1 hour at room temperature. The plates were washed three times in 250 μL of PBS/0.05% (v/v) Tween 20 with Proclin (PBST with a Biocide preservative) and then 20 μL of ERα (SP1) Rabbit monoclonal antibody (Thermofisher) 1:1000 in PBS/Tween™/3% (w/v) Bovine Serum Albumin was added. The plates were incubated overnight at 4° C. (Liconic carousel incubator) and then washed three times in 250 μL of PBS/0.05% (v/v) Tween™ 20 with Proclin (PBST). […]

| SMILES | ER degradation ≥ 90% at 0.3 μM | DC50 |
| --- | --- | --- |
| Cc1ncsc1-c1ccc(CNC(=O)[C@@H]2C[C@@H](O)CN2C(=O)[C@@H](NC(=O)COC[C@@H]2CC2COCCOc2cc(F)c([C@@H]3c4[nH]c5ccccc5c4C[C@@H](C)N3CC(C)(C)F)c(F)c2)C(C)(C)C)cc1 (single isomer, unassigned) [Example 123, (2S,4R)-1-[(2S)-2-[[2-[[(1R*2S*)-2-[2-[3,5-Difluoro-4-[(R,3R)-2-(2-fluoro-2-methyl-propyl)-3-methyl-1,3,4,9-tetrahydropyrido[3,4-b]indol-1-yl]phenoxy]ethoxymethyl]cyclopropyl]methoxy]acetyl]amino]-3,3-dimethyl-butanoyl]-4-hydroxy-N-[[4-(4-methylthiazol-5-yl)phenyl]methyl]pyrrolidine-2-carboxamide] | • | 0.5 nM |
| Cc1ncsc1-c1ccc(CNC(=O)[C@@H]2C[C@@H](O)CN2C(=O)[C@@H](NC(=O)COC[C@@H]2CC2COCCOc2cc(F)c([C@@H]3c4[nH]c5ccccc5c4C[C@@H](C)N3CC(C)(C)F)c(F)c2)C(C)(C)C)cc1 (single isomer, unassigned) [Example 124, (2S,4R)-1-[(2S)-2-[[2-[[(1R*2S*)-2-[2-[3,5-Difluoro-4-[(1R,3R)-2-(2-fluoro-2-methyl-propyl)-3-methyl-1,3,4,9-tetrahydropyrido[3,4-b]indol-1-yl]phenoxy]ethoxymethyl]cyclopropyl]methoxy]acetyl]amino]-3,3-dimethyl-butanoyl]-4-hydroxy-N-[[4-(4-methylthiazol-5-yl)phenyl]methyl]pyrrolidine-2-carboxamide] | • | 0.8 nM |
| Cc1ncsc1-c1ccc(CNC(=O)[C@@H]2C[C@@H](O)CN2C(=O)[C@@H](NC(=O)COCc2ccc(COc3cc(F)c([C@@H]4c5[nH]c6ccccc6c5C[C@@H](C)N4CC(C)(C)F)c(F)c3)cc2)C(C)(C)C)cc1 [Example 19, (2S,4R)-1-((S)-2-(2-((4-((3,5-difluoro-4-((1R,3R)-2-(2-fluoro-2-methylpropyl)-3-methyl-2,3,4,9-tetrahydro-1H-pyrido[3,4-b]indol-1-yl)phenoxy)methyl)benzyl)oxy)acetamido)-3,3-dimethylbutanoyl)-4-hydroxy-N-(4-(4-methylthiazol-5-yl)benzyl)pyrrolidine-2-carboxamide] | •• | 3.2 nM |
| Cc1ncsc1-c1ccc(CNC(=O)[C@@H]2C[C@@H](O)CN2C(=O)[C@@H](NC(=O)CCCCCCNC(=O)/C=C/c2cc(F)c([C@@H]3c4[nH]c5ccccc5c4C[C@@H](C)N3CC(C)(C)F)c(F)c2)C(C)(C)C)cc1 [Example 59, (2S,4R)-1-((S)-2-(7-((E)-3-(3,5-difluoro-4-((1R,3R)-2-(2-fluoro-2-methylpropyl)-3-methyl-2,3,4,9-tetrahydro-1H-pyrido[3,4-b]indol-1-yl)phenyl)acrylamido)heptanamido)-3,3-dimethylbutanoyl)-4-hydroxy-N-(4-(4-methylthiazol-5-yl)benzyl)pyrrolidine-2-carboxamide, Trifluoroacetic Acid] | •• | 0.8 nM |
| Cc1ncsc1-c1ccc(CNC(=O)[C@@H]2C[C@@H](O)CN2C(=O)[C@@H](NC(=O)COCC(F)(F)COCCCCCOc2cc(F)c([C@@H]3c4[nH]c5ccccc5c4C[C@@H](C)N3CC(C)(C)F)c(F)c2)C(C)(C)C)cc1 [Example 126, (2S,4R)-1-((S)-2-(2-(3-((5-(3,5-Difluoro-4-((1R,3R)-2-(2-fluoro-2-methylpropyl)-3-methyl-2,3,4,9-tetrahydro-1H-pyrido[3,4-b]indol-1-yl)phenoxy)pentyl)oxy)-2,2-difluoropropoxy)acetamido)-3,3-dimethylbutanoyl)-4-hydroxy-N-(4-(4-methylthiazol-5-yl)benzyl)pyrrolidine-2-carboxamide] | • | 1.8 nM |
| Cc1ncsc1-c1ccc(CNC(=O)[C@@H]2C[C@@H](O)CN2C(=O)[C@@H](NC(=O)C2(OCCCOCCCOc3cc(F)c([C@@H]4c5[nH]c6ccccc6c5C[C@@H](C)N4CC(C)(C)F)c(F)c3)CC2)C(C)(C)C)cc1 [Example 135, (2S,4R)-1-((S)-2-(1-(3-(3-(3,5-Difluoro-4-((1R,3R)-2-(2-fluoro-2-methylpropyl)-3-methyl-2,3,4,9-tetrahydro-1H-pyrido[3,4-b]indol-1-yl)phenoxy)propoxy)propoxy)cyclopropane-1-carboxamido)-3,3-dimethylbutanoyl)-4-hydroxy-N-(4-(4-methylthiazol-5-yl)benzyl)pyrrolidine-2-carboxamide] | • |  |
